“And” between values parts separate entries of the source, which are not always exact repeats. Identical values can stand only once.
Assay: xn = mol fraction of the nth substance listed
Conditions: Fluid (supercritical or subcritical phases); for mass density: 293.15 K, Vibrating tube method, x1 = 0.97; for speed of sound: 298.13 K, Frequency=5 MHz, Pulse-echo method

O=C=O [carbon dioxide] + CO
Conditions	mass density [kg/m3]
17725 kPa	924.7
17750 kPa	924.87
17775 kPa	925.03
17800 kPa	925.19
17825 kPa	925.35
17850 kPa	925.49
17875 kPa	925.61
17900 kPa	925.82
17925 kPa	925.93
17950 kPa	926.13
17975 kPa	926.25
18000 kPa	926.42
18025 kPa	926.56
18050 kPa	926.67
18075 kPa	926.86
18100 kPa	927.05
18125 kPa	927.16
18150 kPa	927.35
18175 kPa	927.46
18200 kPa	927.66
18225 kPa	927.75
18250 kPa	927.94
18275 kPa	928.06
18300 kPa	928.22
18325 kPa	928.38
18350 kPa	928.5
18375 kPa	928.68
18400 kPa	928.85
18425 kPa	928.95
18450 kPa	929.11
18475 kPa	929.27
18500 kPa	929.45
18525 kPa	929.53
18550 kPa	929.71
18575 kPa	929.88
18600 kPa	929.97
18625 kPa	930.13
18650 kPa	930.29
18675 kPa	930.46
18700 kPa	930.61
18725 kPa	930.69
18750 kPa	930.86
18775 kPa	931.01
18800 kPa	931.17
18825 kPa	931.25
18850 kPa	931.43
18875 kPa	931.59
18900 kPa	931.74
18925 kPa	931.9
18950 kPa	931.99
18975 kPa	932.14
19000 kPa	932.3
19025 kPa	932.45
19050 kPa	932.6
19075 kPa	932.74
19100 kPa	932.87
19125 kPa	933.01
19150 kPa	933.14
19175 kPa	933.29
19200 kPa	933.42
19225 kPa	933.56
19250 kPa	933.7
19275 kPa	933.83
19300 kPa	933.97
19325 kPa	934.1
19350 kPa	934.24
19375 kPa	934.38
19400 kPa	934.51
19425 kPa	934.64
19450 kPa	934.79
19475 kPa	934.91
19500 kPa	935.12
19525 kPa	935.24
19550 kPa	935.36
19575 kPa	935.49
19600 kPa	935.62
19625 kPa	935.75
19650 kPa	935.88
19675 kPa	936
19700 kPa	936.18
19725 kPa	936.26
19750 kPa	936.44
19775 kPa	936.57
19800 kPa	936.69
19825 kPa	936.81
19850 kPa	936.93
19875 kPa	937.05
19900 kPa	937.17
19925 kPa	937.36
19950 kPa	937.48
19975 kPa	937.6
20000 kPa	937.71

Conditions	speed of sound
10080 kPa, x1 = 0.7534	529.7 m/s
14970 kPa, x1 = 0.925	538.3 m/s
14980 kPa, x1 = 0.7534	600.9 m/s
14980 kPa, x1 = 0.925	537.1 m/s
14990 kPa, x1 = 0.925	536.5 m/s and 539.1 m/s
15060 kPa, x1 = 0.8502	554 m/s
19950 kPa, x1 = 0.925	600.2 m/s
19960 kPa, x1 = 0.925	602.2 m/s
20000 kPa, x1 = 0.8502	613.8 m/s
20000 kPa, x1 = 0.925	599.6 m/s and 601.7 m/s
20030 kPa, x1 = 0.7534	657.7 m/s
24940 kPa, x1 = 0.8502	663.5 m/s
24970 kPa, x1 = 0.925	651.7 m/s
24990 kPa, x1 = 0.925	651.3 m/s
25000 kPa, x1 = 0.925	652.9 m/s and 653 m/s
29950 kPa, x1 = 0.925	696.6 m/s
29980 kPa, x1 = 0.925	696.1 m/s
29990 kPa, x1 = 0.925	696.8 m/s
30000 kPa, x1 = 0.8502	707.4 m/s
30010 kPa, x1 = 0.925	695.5 m/s
30030 kPa, x1 = 0.7534	746.7 m/s
34980 kPa, x1 = 0.7534	783.5 m/s
34990 kPa, x1 = 0.925	735.2 m/s
35000 kPa, x1 = 0.925	736.1 m/s
35020 kPa, x1 = 0.925	734.8 m/s
35060 kPa, x1 = 0.8502	746.3 m/s
39980 kPa, x1 = 0.925	771.2 m/s
39990 kPa, x1 = 0.925	770.5 m/s and 770.1 m/s
40000 kPa, x1 = 0.925	771.3 m/s
40030 kPa, x1 = 0.8502	780.8 m/s

From the NIST ThermoML archive (doi:10.1016/j.jct.2016.03.026)
